The source of these data is patent US6972296B2, “Carboxylic acid derivatives that inhibit the binding of integrins to their receptors” (Encysive Pharmaceuticals Inc., priority 1999, dated 2005).

For one assay, the target named is T1, α4β1 integrin (Homo sapiens, UniProt P05556+P13612).
T1 construct: endogenous in cells; host or cells: Ramos cells
T1 sequence (P13612 34-1032): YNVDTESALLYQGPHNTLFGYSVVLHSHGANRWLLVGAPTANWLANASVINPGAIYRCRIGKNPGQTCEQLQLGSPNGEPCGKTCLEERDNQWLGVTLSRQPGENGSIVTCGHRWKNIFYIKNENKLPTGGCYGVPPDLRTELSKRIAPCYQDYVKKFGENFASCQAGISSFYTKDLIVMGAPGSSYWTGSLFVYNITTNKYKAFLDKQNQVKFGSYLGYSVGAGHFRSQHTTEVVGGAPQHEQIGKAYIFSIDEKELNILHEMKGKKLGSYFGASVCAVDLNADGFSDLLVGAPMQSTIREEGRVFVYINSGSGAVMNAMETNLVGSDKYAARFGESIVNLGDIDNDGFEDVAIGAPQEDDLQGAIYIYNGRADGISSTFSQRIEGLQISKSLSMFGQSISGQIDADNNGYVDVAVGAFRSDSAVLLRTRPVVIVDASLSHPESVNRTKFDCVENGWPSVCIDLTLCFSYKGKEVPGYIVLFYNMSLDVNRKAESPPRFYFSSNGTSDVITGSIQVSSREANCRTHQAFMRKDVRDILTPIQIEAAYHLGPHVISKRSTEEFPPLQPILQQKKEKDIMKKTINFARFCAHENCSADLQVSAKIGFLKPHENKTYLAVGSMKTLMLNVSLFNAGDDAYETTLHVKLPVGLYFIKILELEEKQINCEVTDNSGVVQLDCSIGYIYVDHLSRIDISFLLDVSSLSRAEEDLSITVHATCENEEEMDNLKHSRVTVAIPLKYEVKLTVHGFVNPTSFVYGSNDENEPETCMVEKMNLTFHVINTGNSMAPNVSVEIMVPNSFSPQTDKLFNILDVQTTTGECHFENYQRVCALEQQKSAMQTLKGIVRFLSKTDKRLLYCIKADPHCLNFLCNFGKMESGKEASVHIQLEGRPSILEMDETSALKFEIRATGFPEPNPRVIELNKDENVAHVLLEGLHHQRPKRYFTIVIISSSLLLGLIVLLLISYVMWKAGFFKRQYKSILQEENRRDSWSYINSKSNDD
T1 sequence (P05556 21-798): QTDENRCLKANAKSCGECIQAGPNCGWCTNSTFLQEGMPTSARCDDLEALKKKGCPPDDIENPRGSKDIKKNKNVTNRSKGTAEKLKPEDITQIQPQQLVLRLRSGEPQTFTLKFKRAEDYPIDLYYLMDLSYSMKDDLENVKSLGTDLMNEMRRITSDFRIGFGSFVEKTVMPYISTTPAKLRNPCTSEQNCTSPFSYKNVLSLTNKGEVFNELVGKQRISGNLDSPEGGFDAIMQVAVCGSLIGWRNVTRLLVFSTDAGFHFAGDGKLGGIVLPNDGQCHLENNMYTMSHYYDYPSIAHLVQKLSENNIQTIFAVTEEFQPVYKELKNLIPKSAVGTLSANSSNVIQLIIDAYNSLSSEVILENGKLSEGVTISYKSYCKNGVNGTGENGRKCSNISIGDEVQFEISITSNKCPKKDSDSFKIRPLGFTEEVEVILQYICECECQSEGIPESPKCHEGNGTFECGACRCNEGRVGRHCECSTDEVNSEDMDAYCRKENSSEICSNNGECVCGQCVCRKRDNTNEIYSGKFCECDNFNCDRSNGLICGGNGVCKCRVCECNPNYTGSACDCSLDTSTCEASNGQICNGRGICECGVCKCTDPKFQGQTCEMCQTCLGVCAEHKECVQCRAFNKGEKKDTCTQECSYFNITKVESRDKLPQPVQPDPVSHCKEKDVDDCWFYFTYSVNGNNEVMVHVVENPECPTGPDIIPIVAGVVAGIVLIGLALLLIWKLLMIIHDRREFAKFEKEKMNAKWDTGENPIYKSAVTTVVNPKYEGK
Kind of assay: Adhesion of calcein-labeled Ramos cells to CS1 (fibronectin) peptide conjugated ovalbumin. The settings on record: Table 5; Ramos cell adhesion to CS1 conjugated ovalbumin; dose required to give 50% inhibition. The assay is classed as cell-based. In short, it runs like this:
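Calcein AM-labelled Ramos cells (2.5×10^5/well) with compound, up to 100 μM, added to plates coated with CS1 peptide–ovalbumin (0.5 μg/ml) and blocked with 3% BSA. Binding buffer TBS pH 7.5 with 1 mM each MgCl2, CaCl2, MnCl2; 30 min, 37 °C. After washes, adherent cells lysed and read fluorometrically; […].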
On to `O=C(O)C[C@H](NC(=O)Nc1c(O)ccn(Cc2ccccc2Cl)c1=O)c1ccc2c(c1)OCCO2` [(3S)-3-[({[1-(2-chlorobenzyl)-4-hydroxy-2-oxo-1,2-dihydropyridin-3-yl]amino}carbonyl)amino]-3-(2,3-dihydro-1,4-benzodioxin-6-yl)propanoic acid], for which the IC50 was 10 nM.
Same read-out and setting: as for `CCOc1ccc([C@H](CC(=O)O)NC(=O)Nc2c(O)ccn(Cc3ccccc3Cl)c2=O)cc1OCC` [(3S)-3-[({[1-(2-chlorobenzyl)-4-hydroxy-2-oxo-1,2-dihydropyridin-3-yl]amino}carbonyl)amino]-3-(3,4-diethoxyphenyl)propanoic acid], the figure is 0.8 nM; as for `COc1ccc([C@H](CC(=O)O)NC(=O)Nc2c(O)ccn(Cc3ccccc3Cl)c2=O)cc1OC` [(3S)-3-[({[1-(2-chlorobenzyl)-4-hydroxy-2-oxo-1,2-dihydropyridin-3-yl]amino}carbonyl)amino]-3-(3,4-dimethoxyphenyl)propanoic acid], 2 nM; as for `Cc1ccc([C@H](CC(=O)O)NC(=O)Nc2c(O)ccn(Cc3ccccc3Cl)c2=O)cc1C` [(3S)-3-[({[1-(2-chlorobenzyl)-4-hydroxy-2-oxo-1,2-dihydropyridin-3-yl]amino}carbonyl)amino]-3-(3,4-dimethylphenyl)propanoic acid], 5 nM.
Same read-out and setting: for `CCCOc1ccc([C@H](CC(=O)O)NC(=O)Nc2c(O)ccn(Cc3ccccc3Cl)c2=O)cc1OCCC` [(3S)-3-[({[1-(2-chlorobenzyl)-4-hydroxy-2-oxo-1,2-dihydropyridin-3-yl]amino}carbonyl)amino]-3-(3,4-dipropoxyphenyl)propanoic acid] the value was 3 nM; for `COc1cc([C@H](CC(=O)O)NC(=O)Nc2c(O)ccn(Cc3ccccc3Cl)c2=O)cc(OC)c1C` [(3S)-3-[({[1-(2-chlorobenzyl)-4-hydroxy-2-oxo-1,2-dihydropyridin-3-yl]amino}carbonyl)amino]-3-(3,5-dimethoxy-4-methylphenyl)propanoic acid], 3 nM; for `CCOc1cc([C@H](CC(=O)O)NC(=O)Nc2c(O)ccn(Cc3ccccc3Cl)c2=O)ccc1OC` [(3S)-3-[({[1-(2-chlorobenzyl)-4-hydroxy-2-oxo-1,2-dihydropyridin-3-yl]amino}carbonyl)amino]-3-(3-ethoxy-4-methoxyphenyl)propanoic acid], 2 nM.
Same read-out and setting: for `CCOc1cccc([C@H](CC(=O)O)NC(=O)Nc2c(O)ccn(Cc3ccccc3Cl)c2=O)c1` [(3S)-3-[({[1-(2-chlorobenzyl)-4-hydroxy-2-oxo-1,2-dihydropyridin-3-yl]amino}carbonyl)amino]-3-(3-ethoxyphenyl)propanoic acid] the value was 3 nM; for `COc1cc([C@H](CC(=O)O)NC(=O)Nc2c(O)ccn(Cc3ccccc3Cl)c2=O)ccc1C` [(3S)-3-[({[1-(2-chlorobenzyl)-4-hydroxy-2-oxo-1,2-dihydropyridin-3-yl]amino}carbonyl)amino]-3-(3-methoxy-4-methylphenyl)propanoic acid], 3 nM.
As for `COc1cc([C@H](CC(=O)O)NC(=O)Nc2c(O)ccn(Cc3ccccc3Cl)c2=O)cc2c1OCO2` [(3S)-3-[({[1-(2-chlorobenzyl)-4-hydroxy-2-oxo-1,2-dihydropyridin-3-yl]amino}carbonyl)amino]-3-(7-methoxy-1,3-benzodioxol-5-yl)propanoic acid], the IC50 is 5 nM.
Still for that read-out and setting: as for `COCCOc1cccc([C@H](CC(=O)O)NC(=O)Nc2c(O)ccn(Cc3ccccc3Cl)c2=O)c1` [(3S)-3-[({[1-(2-chlorobenzyl)-4-hydroxy-2-oxo-1,2-dihydropyridin-3-yl]amino}carbonyl)amino]-3-[3-(2-methoxyethoxy)phenyl]propanoic acid], the figure is 3 nM.
Turning to `O=C(O)C[C@H](NC(=O)Nc1c(O)ccn(Cc2ccccc2Cl)c1=O)c1cccc(OC(F)F)c1` [(3S)-3-[({[1-(2-chlorobenzyl)-4-hydroxy-2-oxo-1,2-dihydropyridin-3-yl]amino}carbonyl)amino]-3-[3-(difluoromethoxy)phenyl]propanoic acid], the IC50 was 6 nM.
The same measure, in the same setting: for `Cc1ccc([C@H](CC(=O)O)NC(=O)Nc2c(O)c3c(n(Cc4ccccc4Cl)c2=O)CCC3)cc1` [(3S)-3-[({[1-(2-chlorobenzyl)-4-hydroxy-2-oxo-2,5,6,7-tetrahydro-1H-cyclopenta[b]pyridin-3-yl]amino}carbonyl)amino]-3-(4-methylphenyl)propanoic acid] the value was 3 nM; for `CCCc1cn(Cc2ccccc2Cl)c(=O)c(NC(=O)N[C@@H](CC(=O)O)c2ccc(OCC)c(OCC)c2)c1O` [(3S)-3-[({[1-(2-chlorobenzyl)-4-hydroxy-2-oxo-5-propyl-1,2-dihydropyridin-3-yl]amino}carbonyl)amino]-3-(3,4-diethoxyphenyl)propanoic acid], 5 nM.
Still for that read-out and setting: for `CCCc1cn(Cc2ccccc2Cl)c(=O)c(NC(=O)N[C@@H](CC(=O)O)c2cccc(OCC)c2)c1O` [(3S)-3-[({[1-(2-chlorobenzyl)-4-hydroxy-2-oxo-5-propyl-1,2-dihydropyridin-3-yl]amino}carbonyl)amino]-3-(3-ethoxyphenyl)propanoic acid] the value was 3 nM; for `CCCc1cn(Cc2ccccc2Cl)c(=O)c(NC(=O)N[C@@H](CC(=O)O)c2ccc(C)cc2)c1O` [(3S)-3-[({[1-(2-chlorobenzyl)-4-hydroxy-2-oxo-5-propyl-1,2-dihydropyridin-3-yl]amino}carbonyl)amino]-3-(4-methylphenyl)propanoic acid], 20 nM.
As for `CCOc1ccc([C@H](CC(=O)O)NC(=O)Nc2c(O)c(C)c(C)n(Cc3ccccc3Cl)c2=O)cc1OCC` [(3S)-3-[({[1-(2-chlorobenzyl)-4-hydroxy-5,6-dimethyl-2-oxo-1,2-dihydropyridin-3-yl]amino}carbonyl)amino]-3-(3,4-diethoxyphenyl)propanoic acid], the IC50 was 3 nM.
Still for that read-out and setting: for `Cc1ccc([C@H](CC(=O)O)NC(=O)Nc2c(O)c(C)c(C)n(Cc3ccccc3Cl)c2=O)cc1` [(3S)-3-[({[1-(2-chlorobenzyl)-4-hydroxy-5,6-dimethyl-2-oxo-1,2-dihydropyridin-3-yl]amino}carbonyl)amino]-3-(4-methylphenyl)propanoic acid] the value was 6 nM; for `CCOc1ccc([C@H](CC(=O)O)NC(=O)Nc2c(O)c(C)cn(Cc3ccccc3Cl)c2=O)cc1OCC` [(3S)-3-[({[1-(2-chlorobenzyl)-4-hydroxy-5-methyl-2-oxo-1,2-dihydropyridin-3-yl]amino}carbonyl)amino]-3-(3,4-diethoxyphenyl)propanoic acid], 0.6 nM.
The same measure, in the same setting: as for `CCOc1cccc([C@H](CC(=O)O)NC(=O)Nc2c(O)c(C)cn(Cc3ccccc3Cl)c2=O)c1` [(3S)-3-[({[1-(2-chlorobenzyl)-4-hydroxy-5-methyl-2-oxo-1,2-dihydropyridin-3-yl]amino}carbonyl)amino]-3-(3-ethoxyphenyl)propanoic acid], the figure is 2 nM.

Staying with this assay, now noted: Table 6; Ramos cell adhesion to CS1 conjugated ovalbumin, 30 minutes at 37° C.
`CC(C)Oc1cccc([C@H](CC(=O)O)NC(=O)Nc2c(O)ccn(Cc3ccccc3Cl)c2=O)c1` [(3S)-3-[({[1-(2-chlorobenzyl)-4-hydroxy-2-oxo-1,2-dihydropyridin-3-yl]amino}carbonyl)amino]-3-(3-isopropoxyphenyl)propanoic acid]: the IC50 is 3 nM.
For the compound `CC(C)Oc1cccc([C@H](CC(=O)O)NC(=O)Nc2c(O)c3c(n(Cc4ccccc4Cl)c2=O)CCC3)c1` [(3S)-3-[({[1-(2-chlorobenzyl)-4-hydroxy-2-oxo-2,5,6,7-tetrahydro-1H-cyclopenta[b]pyridin-3-yl]amino}carbonyl)amino]-3-(3-isopropoxyphenyl)propanoic acid], the IC50 was 3 nM.
Still for that read-out and setting: for `COc1ccc([C@H](CC(=O)O)NC(=O)Nc2c(O)c(C)cn(Cc3ccccc3Cl)c2=O)cc1` [(3S)-3-[({[1-(2-chlorobenzyl)-4-hydroxy-5-methyl-2-oxo-1,2-dihydropyridin-3-yl]amino}carbonyl)amino]-3-(4-methoxyphenyl)propanoic acid] the value was 4 nM.

Staying with this assay, now noted: Table 7; Ramos cell adhesion to CS1 conjugated ovalbumin; dose required to give 50% inhibition.
Take `Cn1ccc2cc([C@H](CC(=O)O)NC(=O)Nc3c(O)c4c(n(Cc5ccccc5Cl)c3=O)CCC4)ccc21` [(3S)-3-[({[1-(2-chlorobenzyl)-4-hydroxy-2-oxo-2,5,6,7-tetrahydro-1H-cyclopenta[b]pyridin-3-yl]amino}carbonyl)amino]-3-(1-methyl-1H-indol-5-yl)propanoic acid]: the IC50 was 4 nM.
On the same count and under the same terms, as for `Cc1cc(C)cc([C@H](CC(=O)O)NC(=O)Nc2c(O)c3c(n(Cc4ccccc4Cl)c2=O)CCC3)c1` [(3S)-3-[({[1-(2-chlorobenzyl)-4-hydroxy-2-oxo-2,5,6,7-tetrahydro-1H-cyclopenta[b]pyridin-3-yl]amino}carbonyl)amino]-3-(3,5-dimethylphenyl)propanoic acid], the figure is 9 nM; as for `Cc1cccc([C@H](CC(=O)O)NC(=O)Nc2c(O)c3c(n(Cc4ccccc4Cl)c2=O)CCC3)c1` [(3S)-3-[({[1-(2-chlorobenzyl)-4-hydroxy-2-oxo-2,5,6,7-tetrahydro-1H-cyclopenta[b]pyridin-3-yl]amino}carbonyl)amino]-3-(3-methylphenyl)propanoic acid], 5 nM.
`CC(C)Oc1cc([C@H](CC(=O)O)NC(=O)Nc2c(O)c3c(n(Cc4ccccc4Cl)c2=O)CCC3)ccc1Cl` [(3S)-3-[({[1-(2-chlorobenzyl)-4-hydroxy-2-oxo-2,5,6,7-tetrahydro-1H-cyclopenta[b]pyridin-3-yl]amino}carbonyl)amino]-3-(4-chloro-3-isopropoxyphenyl)propanoic acid]: the IC50 is 38 nM.
Consider `O=C(O)C[C@H](NC(=O)Nc1c(O)c2c(n(Cc3ccccc3Cl)c1=O)CCC2)c1cccc(OCC2CC2)c1` [(3S)-3-[({[1-(2-chlorobenzyl)-4-hydroxy-2-oxo-2,5,6,7-tetrahydro-1H-cyclopenta[b]pyridin-3-yl]amino}carbonyl)amino]-3-[3-(cyclopropylmethoxy)phenyl]propanoic acid], for which the IC50 was 9 nM.

A word on the IC50: it is the concentration needed to halve the response being measured.
